The values below come from publication PMC12073238, “The α-Glucosidase Inhibition Activities of Phaeochromycins D and E Isolated from Marine Streptomyces sp. FJ0218” (Molecules, 2025).

pIC50: −log10 of the molar value. Where two headings read alike, the source gives them in different places.

The target of test [1] is T1, α-glucosidase (Saccharomyces cerevisiae, UniProt P53341). The note with it: cited from earlier work.
Test [2] has as its target T1, α-glucosidase. Briefly: inhibition kinetics of α-glucosidase, Lineweaver–Burk double-reciprocal plots. The note with it: compound 1 at 0.5 and 0.7 mM, compound 2 at 0.2 and 0.3 mM; for inhibition type: ρNPG 0.25-4.0 mM. Type of test: biochemical. On the procedure:
Louis, MO, USA) in the same PBS buffer. […] After being thoroughly mixed, the mixture was placed in a 37 °C constant temperature incubator for 15 min. […] Then, 80 μL of 200 mM Na2CO3 solution was added to complete the reaction. Finally, the absorbance value (OD) was measured at 405 nm using a microplate reader. The experiment used 20 μL of PBS as the background control instead of 20 μL of α-glucosidase solution. Additionally, 20 μL of PBS was used as the negative control instead of the test sample. […] Each treatment was repeated three times. The α-glucosidase inhibitory activity was calculated using the following formula: Inhibitory rate (%) = [(An - As)/An] × 100, where As represents the absorbance of the sample reaction solution, and An represents the absorbance of the negative control. The IC50 values, the inhibitor concentration in mM that inhibits 50% of the enzyme activity, were determined graphically by interpolating from the inhibitions determined with different concentrations of compounds, through statistical analysis using SPSS 18.0. […] For compound 1, concentrations of 0.5 mM and 0.7 mM were used, while for compound 2, concentrations of 0.2 mM and 0.3 mM were selected. […] The enzyme reaction was performed using the conditions described above. Inhibition types were analyzed using double-reciprocal plots generated with Origin 2021.

The subject of test [3] is small intestinal α-glucosidase. On the set-up: method as in PMID 26840363. The note with it: small intestinal α-glucosidase in rats; cited from earlier work.
A further test has as its target MAPKAP kinase-2. On the set-up: method as in PMID 16124774. As to conditions: weak inhibitors; cited from earlier work.
In the next test the test system is HeLa cell line. Also on record: method as in PMID 19190740. The note with it: at a concentration of 10 μg/mL; cited from earlier work.

T1 sequence (P53341 whole entry): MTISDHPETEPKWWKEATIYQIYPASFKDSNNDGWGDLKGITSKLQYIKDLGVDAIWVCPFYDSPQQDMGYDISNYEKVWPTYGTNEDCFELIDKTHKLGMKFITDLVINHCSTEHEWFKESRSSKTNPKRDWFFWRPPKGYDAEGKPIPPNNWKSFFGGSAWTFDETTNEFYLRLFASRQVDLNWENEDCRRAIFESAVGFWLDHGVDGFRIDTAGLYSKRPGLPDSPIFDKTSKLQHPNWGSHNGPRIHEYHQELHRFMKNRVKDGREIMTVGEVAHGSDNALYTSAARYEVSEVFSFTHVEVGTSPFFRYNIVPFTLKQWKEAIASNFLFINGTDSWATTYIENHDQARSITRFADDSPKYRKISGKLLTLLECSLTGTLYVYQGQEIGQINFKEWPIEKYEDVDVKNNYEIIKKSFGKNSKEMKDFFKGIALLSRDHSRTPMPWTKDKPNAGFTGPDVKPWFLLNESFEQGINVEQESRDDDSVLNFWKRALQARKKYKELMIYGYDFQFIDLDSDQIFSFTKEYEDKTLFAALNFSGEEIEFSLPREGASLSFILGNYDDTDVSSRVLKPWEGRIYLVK

For `Cc1nc2c(cc(O)c3c(=O)c4ccccc4oc32)o1` [5-hydroxy-2-methyl-6H-xantheno[4,3-d]oxazol-6-one], on α-glucosidase [1] (kinetic analysis), the inhibition type result is reported as “competitive inhibitor”.
For `CCCc1cc(=O)c2c(CC(=O)O)cccc2o1` [Compound 1, phaeochromycin E], at α-glucosidase [2], the “effect on Km” value was “Km decreases”, the “effect on Vmax” value is given as “decrease in Vmax” and the inhibition type result is “uncompetitive inhibitor”.
Turning to `CCCc1cc(=O)c2c(CC(=O)CC(C)O)cccc2o1` (stereo not shown) [Compound 2, phaeochromycin D], on α-glucosidase [2], the “effect on Km” value is “keeping the Km constant”, the “effect on Vmax” value is “decreasing the 1/Vmax” and the inhibition type result was “non-competitive inhibitor”.
Take `NS(=O)(=O)c1ccc(N/N=C/c2coc3ccccc3c2=O)cc1` [Compound 4d]: the inhibition type result on α-glucosidase [1] (Lineweaver–Burk plot analysis) is on record as “non-competitive mode”.
For the molecule `O=C(OC[C@H]1O[C@@H](OC(=O)c2cc(O)c(O)c(OC(=O)c3cc(O)c(O)c(O)c3)c2)[C@H](OC(=O)c2cc(O)c(O)c(OC(=O)c3cc(O)c(O)c(O)c3)c2)[C@@H](OC(=O)c2cc(O)c(O)c(OC(=O)c3cc(O)c(O)c(O)c3)c2)[C@@H]1OC(=O)c1cc(O)c(O)c(OC(=O)c2cc(O)c(O)c(O)c2)c1)c1cc(O)c(O)c(OC(=O)c2cc(O)c(O)c(O)c2)c1` [Gallotannin], the inhibition type entry on α-glucosidase [1] is on record as “parabolic mixed-type inhibition”.
With `OC[C@@H]1[C@@H](O)[C@H](O)C[S@@+]1C[C@@H](O)[C@@H](O)[C@H](O)[C@@H](O)CO` [Neoponkoranol], in test [3], the inhibition type result is “strong competitive inhibition”.
As to `CCCc1cc(=O)c2c(Cc3cc(O)cc(=O)o3)cccc2o1` [Phaeochromycin C], the pIC50 on MAPKAP kinase-2 is 3.89.
As for `CC(=O)CCc1ccc(O)cc1` [Raspberry ketone], the inhibition type entry on α-glucosidase [1] (binding reversibly and quickly) was “non-competitively”.
With `O=c1c(-c2ccc(O)cc2)coc2cc(O)ccc12` [daidzein], the inhibition type result at α-glucosidase [1] is recorded as “non-competitive action”.
`O=c1c(-c2ccc(O)cc2)coc2cc(O)cc(O)c12` [genistein]: the inhibition type entry on α-glucosidase [1] was “non-competitive action”.
For Phaeochromycin A, on MAPKAP kinase-2, the pIC50 was 4.41.
In the case of phaeochromycin H, in the test on HeLa cell line, the “inhibitory rate against the HeLa cell line” value is 46.0%.

As a reminder, the pIC50 is −log10 of the IC50, conventionally taken in molar units.
